Here are results for three compounds from ChEMBL document CHEMBL5143584, “A dual aurora and lim kinase inhibitor reduces glioblastoma proliferation and invasion” (Bioorg Med Chem Lett, 2022).

Activity calls are given as the source filed them. No cut-off for these calls is given here.

The subject of data set [1] is GBM. The data set is described as follows: Antiproliferative activity against fluorescently labelled human GBM cells are co-cultured with mature brain organoids differentiated from iPSCs assessed as reduction in total number of GBM cells by FACS. In kind it is functional, cell-based.
Data set [2] relates to GBM. In words: Antiproliferative activity against fluorescently labelled human GBM cells are co-cultured with mature brain organoids differentiated from iPSCs assessed as reduction in total number of GBM cells at 500 nM incubated for 10 days by fluorescent confocal microscopy. To be noted: time 10.0 day. The data set is classed as functional, cell-based.
Data set [3] relates to GBM. The data set is described as follows: Anti-invasion activity against fluorescently labelled human GBM cells are co-cultured with mature brain organoids differentiated from iPSCs assessed as reduction in number of invading GBM cells at 500 nM incubated for 10 days by fluorescent confocal microscopy. To be noted: time 10.0 day. The data set is classed as functional, cell-based.

Data set [4] can be described thus: Antiproliferative activity against human GBM22 cells assessed as inhibition of cell proliferation incubated for 48 hrs by live/dead fluorescence imaging-based assay. The data set is classed as functional. To be noted: GBM.
Data set [5] is described as follows: Antiproliferative activity against human GBM22 cells assessed as inhibition of cell proliferation by CellTiter-Glo ATP content assay. The data set is classed as functional, cell-based. To be noted: GBM.
Data set [6] addresses T1, Aurora kinase A (Homo sapiens, UniProt O14965).
T1 sequence (O14965 whole entry): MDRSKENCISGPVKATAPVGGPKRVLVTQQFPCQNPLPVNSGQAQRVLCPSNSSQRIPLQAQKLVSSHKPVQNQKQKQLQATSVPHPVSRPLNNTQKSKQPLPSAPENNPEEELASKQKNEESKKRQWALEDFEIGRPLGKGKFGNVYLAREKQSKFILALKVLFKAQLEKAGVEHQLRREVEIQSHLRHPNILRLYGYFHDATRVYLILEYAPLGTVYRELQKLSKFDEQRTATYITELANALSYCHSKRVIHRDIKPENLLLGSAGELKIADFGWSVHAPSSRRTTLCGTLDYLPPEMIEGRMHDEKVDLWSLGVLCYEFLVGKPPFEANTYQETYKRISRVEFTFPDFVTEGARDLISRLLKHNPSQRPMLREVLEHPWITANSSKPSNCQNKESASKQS
The data set is described as follows: Inhibition of AURKA (unknown origin).

Data set [7] can be described thus: Antiproliferative activity against human GBM22 cells assessed as inhibition of cell proliferation incubated for 24 hrs by live/dead fluorescence imaging-based assay. To be noted: GBM. The data set is classed as functional.
Data set [8] concerns the target LIM domain kinase 1 (Homo sapiens, UniProt P53667). In words: Inhibition of LIMK1 (unknown origin).
Data set [9] deals with Aurora kinase B (Homo sapiens, UniProt Q96GD4). The data set is described as follows: Inhibition of AURKB (unknown origin).
Data set [10] can be described thus: Toxicity in human mature brain organoids differentiated from iPSCs assessed as decrease in organoid volume and surface area at 500 nM incubated for 10 days. Particulars: 240 h, 0.5 µM, time 10 day. The data set is classed as cell-based.
In data set [11] the test system is GBM. In words: Anti-invasion activity against fluorescently labelled human GBM cells are co-cultured with mature brain organoids differentiated from iPSCs assessed as reduction in number of invading GBM cells incubated for 10 days by fluorescent confocal microscopy. Particulars: time 10.0 day. The data set is classed as functional, cell-based.
Data set [12] deals with GBM. In words: Antiproliferative activity against fluorescently labelled human GBM cells are co-cultured with mature brain organoids differentiated from iPSCs assessed as reduction in total number of GBM cells incubated for 10 days by fluorescent confocal microscopy. In kind it is functional, cell-based. Particulars: time 10.0 day.
Data set [13] is described as follows: Toxicity in human mature brain organoids differentiated from iPSCs assessed as decrease in organoid volume and surface area incubated for 10 days. The data set is classed as cell-based. To be noted: 240 h, time 10 day.

LIM domain kinase 1, sequence (P53667 whole entry, the tested form may be a part): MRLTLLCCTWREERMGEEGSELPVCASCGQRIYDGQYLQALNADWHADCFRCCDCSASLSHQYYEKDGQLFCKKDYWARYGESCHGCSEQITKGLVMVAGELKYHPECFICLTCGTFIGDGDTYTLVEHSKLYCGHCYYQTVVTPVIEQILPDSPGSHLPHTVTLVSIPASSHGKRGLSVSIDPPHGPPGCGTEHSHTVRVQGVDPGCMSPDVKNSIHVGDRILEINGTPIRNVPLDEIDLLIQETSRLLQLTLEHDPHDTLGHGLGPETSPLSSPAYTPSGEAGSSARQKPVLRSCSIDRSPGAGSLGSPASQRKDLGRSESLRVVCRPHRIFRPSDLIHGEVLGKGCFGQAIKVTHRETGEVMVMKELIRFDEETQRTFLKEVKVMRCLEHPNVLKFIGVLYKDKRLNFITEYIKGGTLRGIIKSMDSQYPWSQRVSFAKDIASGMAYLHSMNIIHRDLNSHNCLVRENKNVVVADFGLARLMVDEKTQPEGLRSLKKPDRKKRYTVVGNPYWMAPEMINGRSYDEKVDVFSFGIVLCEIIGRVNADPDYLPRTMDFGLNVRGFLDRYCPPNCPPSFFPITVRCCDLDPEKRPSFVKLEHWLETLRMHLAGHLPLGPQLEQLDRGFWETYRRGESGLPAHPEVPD
Aurora kinase B, sequence (Q96GD4 whole entry): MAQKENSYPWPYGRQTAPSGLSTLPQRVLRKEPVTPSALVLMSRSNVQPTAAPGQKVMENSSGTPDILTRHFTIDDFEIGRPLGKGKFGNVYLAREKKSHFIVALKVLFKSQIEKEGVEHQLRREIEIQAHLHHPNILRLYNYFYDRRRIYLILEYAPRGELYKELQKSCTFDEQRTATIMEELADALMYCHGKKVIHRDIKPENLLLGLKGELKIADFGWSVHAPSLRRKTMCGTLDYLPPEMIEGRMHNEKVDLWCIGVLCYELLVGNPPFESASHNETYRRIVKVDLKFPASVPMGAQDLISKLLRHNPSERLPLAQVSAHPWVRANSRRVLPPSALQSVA

In the case of `CC(C)n1cc(Nc2ncc3ccc(=O)n(C(C)C)c3n2)cn1`, the result in data set [1], in [2] and in data set [3] was Active. Also, the IC50 in [4] was 1530 nM; in [5], 5340 nM; in data set [6], 72 nM; in data set [7], 2460 nM; in [8] it was 137 nM; in data set [9], 17 nM. Besides, the Activity result in data set [10] is “Toxic”.

For `CC(C)C(=O)Nc1ncc(-c2cc(C(F)F)nn2-c2c(Cl)cccc2Cl)s1`, the result in [11] and in data set [12] was Active. The Activity result in [13] is “Non-Toxic”.

Consider `Cc1csc(-c2nnc(Nc3ccc(Oc4ncccc4-c4ccnc(N)n4)cc3)c3ccccc23)c1` [AMG-900], for which the result in [12] was Active. Further, in data set [13], the Activity entry is reported as “Non-Toxic”.
